Where “and” joins values, the source holds several entries; their conditions need not be identical. Equal values may be shown once. Entries after “also recorded” stand apart in the source; their conditions may differ. Read-outs that look alike come from different tables or passages of the source.
How the values were obtained:
[1] = test system: HepaRG cells; assay: High-content imaging assay: lipid accumulation (Bodipy lipid droplets); type: cell-based; details: HepaRG 24 h; for Lipid accumulation response (in words): population level, threshold ± 2 standard deviations of the response at the two lowest concentrations; for EC (BMC, 1 SD from control): Homo sapiens, lipid accumulation, Supplementary table 3, read-out: LA: Benchmark concentration (µM) per imaging endpoint calculated with BMDS software
[2] = IVIVE reverse dosimetry: oral equivalent dose (OED) from BMC; details: IVIVE derived median over all positive imaging endpoints; rat simulation (R script); Table 2
Source text: Human data were used except where otherwise stated. […]
mc_OED_WY14643_LD <- calc_mc_oral_equiv(40.98, chem.cas="50892-23-4", model = "3compartmentss",species="Rat", return.samples = T, samples=1000, httkpop = T) mc_OED_WY14643_MD <- calc_mc_oral_equiv(38.1, chem.cas="50892-23-4", model = "3compartmentss",species="Rat", return.samples = T, samples=1000, httkpop = T) mc_OED_WY14643_NM <- calc_mc_oral_equiv(386.28, chem.cas="50892-23-4", model = "3compartmentss",species="Rat", return.samples = T, samples=1000, httkpop = T)

[3] = Published in vivo pharmacokinetics (Css, clearance); details: rat; for In vivo Css (µM): calculated with Css = (Dose*F)/(Cl*dosing interval) or k0/Cl from published pharmacokinetic parameters, ref Cunningham 2007, Adedayo Adedoyin, Leon Arons 1993b
Source text: For the model evaluation, Css of selected reference chemicals were predicted using formula 1 with the same dose rate from the in vivo Css measurements. For chemicals with no in vitro intrinsic hepatic clearance and fraction unbound values available in the database included in the httk package, in silico predictions from (Sipes et al. [2017]) were loaded using load_sipes2017(). […]. The formula to calculate Clint was derived from the function calc_hepatic_clearance within the httk package. Predicted Css values were then compared to published in vivo Css values. If there was no published in vivo Css available, Css was then calculated based on published in vivo pharmacokinetic parameters using the following formula (Supplementary table 3)4 Css(mg/L)=(Dose×F)/(Cl×dosinginterval)
(§1) Supplementary table 3. Comparison of benchmark concentration and predicted Css with published pharmacokinetic values. Where indicated, in vivo derived Css values were calculated using following formula: Css = (Dose*F)/(Cl*dosing interval) or Css = k0/Cl with F = bioavailability, Cl = clearance, k0 = infusion rate and Css = steady state concentration.

[4] = test system: HepaRG cells; details: for Mitochondrial membrane potential response (in words): population level, threshold ± 2 standard deviations of the response at the two lowest concentrations
[5] = test system: HepaRG cells; details: HepaRG 24 h, population level; threshold ± 2 standard deviations of the response at the two lowest concentrations
Description: (§2) Cellular responses were quantified using a high-content imaging approach (Fig. 1). Based on cell viability assessment, concentrations below the EC50 level were tested in the high-content imaging assay. After 24 h chemical exposure, live cells were incubated with CellROX, which reflects hydroxyl radi [...

[6] = test system: HepaRG cells; assay: cells; details: Homo sapiens, 24 h, read-out: MMP: Benchmark concentration (µM) per imaging endpoint calculated with BMDS software
[7] = test system: HepaRG cells; assay: cells; details: Homo sapiens, 24 h, read-out: NM: Benchmark concentration (µM) per imaging endpoint calculated with BMDS software
Description: as §2

[8] = Published in vivo pharmacokinetics (Css, plasma concentration, clearance); details: human; for hepatocyte CLint: hepatocytes (back-calculated, no incubation), in vitro intrinsic hepatic clearance calculated from in vivo clearance with formula 3, read-out: Calculated Clint (ul/min/10^6 cells); for In vivo Css (µM): calculated with Css = (Dose*F)/(Cl*dosing interval) or k0/Cl from published pharmacokinetic parameters, ref Bowsher et al. 1994, Welling et al. 1977
Description: For the model evaluation, Css of selected reference chemicals were predicted using formula 1 with the same dose rate from the in vivo Css measurements. […] The formula to calculate Clint was derived from the function calc_hepatic_clearance within the httk package. Predicted Css values were then compared to published in vivo Css values. If there was no published in vivo Css available, Css was then calculated based on published in vivo pharmacokinetic parameters using the following formula (Supplementary table 3)4 Css(mg/L)=(Dose×F)/(Cl×dosinginterval)
as §1

[9] = test system: HepaRG cells; details: for Oxidative stress response (in words): population level, threshold ± 2 standard deviations of the response at the two lowest concentrations
[10] = IVIVE derived median over all positive imaging endpoints; human simulation; Table 2
Description: In our study, a three-compartment steady state pharmacokinetic (PK) model was parameterized and used for the simulations. […] Human data were used except where otherwise stated. Steady-state concentration (Css) in the blood was calculated using formula 1 (Pearce et al. [2017])1 Cssmg/l=ko/(GFR×fup+Qliver+Qgut×fup×Clmetabolism/Qliver+Qgut+fup×Clmetabolism/Rblood2plasma) where ko = constant dose rate (mg/kg BW/day), fup = in vitro measured chemical fraction unbound in plasma, Clmetabolism = metabolic clearance scaled from in vitro intrinsic hepatic clearance, Rblood2plasma = ratio of blood concentration of a chemical to the plasma concentration, GFR = glomerular filtration rate (mean 5.17 ml/min/kg^3/4), Qliver = blood flow to the liver (mean 59.9 ml/min/kg^3/4), and Qgut = blood flow to the gut (mean 47.5 ml/min/kg^3/4). Fraction unbound, metabolic clearance, and Rblood2plasma values were obtained from the httk package or from literature. Recognizing that formula 1 is linear in dose rate (ko), oral equivalent doses (OED) were then calculated using the Css predicted for a 1 mg/kg/day dose rate as in formula 2 (Rotroff et al. [2010]).2 OEDmg/kg/day=BMCuM×1mg/kg/day/CssuM
The calculated OED corresponds to an oral daily dose which would lead to a plasma concentration equal to the in vitro-derived BMC. The OED is linearly related to the BMC and inversely related to Css. This equation is only valid for first-order metabolism (Rotroff et al. [2010]). A Monte Carlo analysis was used to simulate population variability in, GFR, Qliver, Qgut, and Clmetabolism across 1000 healthy individuals. Extrapolations were performed for each chemical and endpoint which was positive in the imaging assay. Every predicted parameter per chemical was then combined into one boxplot per endpoint, which contained all predicted OEDs across all positive endpoints.
Vice versa, predicted OED derived from BMC were compared to published exposure values of the corresponding chemicals. Simulations were performed in humans where pharmacokinetic parameters for humans were available; otherwise, estimations were calculated in rats or rabbits, as stated in Fig. 7.

[11] = human, cited from earlier work
[12] = set-up: method as in Literature column of Supplementary table 4; details: value added to httk database; ref Supplementary table 4; cited from earlier work
[13] = set-up: method as in earlier work; details: fraction unbound plasma; human; ref Aegerion Pharmaceuticals 2012; Bowsher et al. 1994; Scheen 1996; cited from earlier work
[14] = test system: HepaRG cells; assay: Cell viability assessment (WST-1 assay); type: cell-based, human; details: Homo sapiens, 24 h exposure, reference chemicals, 95% CI in brackets, read-out: EC50 µM (95% CI) from cell viability (WST-1)
Source text: Undifferentiated HepaRG cells were purchased from Biopredic international (Saint Grégoire, France). HepaRG cells have unlimited growth capacity and phenotypic stability, stable enzymatic activities over 4 weeks of cultivation, and similar metabolic function to primary human hepatocytes, and also avoid limitations of primary cells such as donor variability and phenotypic instability (Aninat et al. [2006]; Guillouzo et al. [2007]; Lambert et al. [2009]; Lübberstedt et al. [2011]; Andersson et al. [2012]). The line contains two cell types, hepatocyte-like and cholangiocyte-like cells (Parent et al. [2004]), which allows for elucidation of cell-specific toxicity (Jossé et al. [2008]). Cells were seeded at a density of approximately 27′000 cells/cm^2 into a 150 × 25 mm petri dish and were cultured for 2 weeks in William’s E medium (cat. nr.: 32,551,020, ThermoFisher Scientific, Massachusetts, USA) supplemented with 2 mM glutamine, 10% (v/v) fetal bovine serum (FBS) good forte (cat. nr.: P40-47,500, PAN-Biotech, Aidenbach, Germany), 100 U/ml penicillin and 100 µg/ml streptomycin (cat. nr.: 15,140,122, ThermoFisher Scientific, Massachusetts, USA), 5 µg/ml Gibco recombinant AOF insulin (cat. nr.: A11382II, ThermoFisher Scientific, Massachusetts, USA) and 50 µM hydrocortisone hemisuccinate (cat. nr.: H4881, Sigma-Aldrich, St. Louis, USA) at 37 °C and 5% CO2. Differentiation was induced by culturing the cells for another 2 weeks in the above mentioned medium supplemented with 1.7% DMSO. After 4 weeks in culture, differentiated HepaRG cells were seeded at a high density of approximately 227′000 cells/cm^2 (72,000 cells/well with 100 µl per well) into black 96-well plates with a clear bottom (cat.nr.: 3603, Corning, New York, USA) and maintained for 10 days. After 10 days, cells were first adapted to treatment medium (culture medium containing 0.5% DMSO and 2% FBS) for 48 h and then used for cell viability and high-content imaging analysis.
Cell viability was analyzed using the WST-1 assay which is based on the measurement of mitochondrial dehydrogenase activity (cat. nr: ab155902, Abcam, Cambridge, UK). HepaRG cells were exposed to chemicals at defined concentrations for 24 h. Triton X-100 (0.01%) was a positive control. One hour before the end of incubation period, 10 µl of WST-1 reagent was added to each well, quickly mixed by shaking the plate, and returned to the cell culture incubator (37 °C, 5% CO2). After 1 h, absorbance was measured (450 nm, reference wavelength 620 nm) using a plate reader (Infinite M200 Pro, Tecan group, Männerdorf, Switzerland). Absorbance was then subtracted from the reference wavelength, corrected for background by subtracting values measured without cells, and then normalized to the solvent control, which was set to 100%. Dose–response data were fitted using drc package (Version 3.0.1) (Ritz et al. [2015]) in R 3.6.1. Data were from at least 3 independent experiments with 6 technical replicates per condition.

[15] = set-up: method as in Adedayo Adedoyin, Leon Arons 1993a; details: rat; plasma clearance; ref Adedayo Adedoyin, Leon Arons 1993a; cited from earlier work
[16] = set-up: method as in Adedayo Adedoyin, Leon Arons 1993a; details: fraction unbound plasma; rat; ref Adedayo Adedoyin, Leon Arons 1993a; cited from earlier work
[17] = ref Bowsher et al. 1994, Scheen 1996
[18] = single cell analysis, highest concentration 250 µM

| SMILES | Lipid accumulation response (in words) [1] | EC (BMC, 1 SD from control) [1] | In vivo Css (µM) [3] | Mitochondrial membrane potential response (in words) ([4]; HepaRG 24 h) | Number of apoptotic cells (nuclear morphology) response (in words) [5] | EC (BMC, 1 SD from control) [6] | EC (BMC) [7] | hepatocyte CLint [8] | In vivo Css (µM) [8] | Oxidative stress response (in words) ([9]; HepaRG 24 h) | OED [10] | LogP [12] | Fup [13] | EC50 [14] | Concentration at which decrease of mitochondrial membrane potential exceeded the threshold ([4]; HepaRG 24 h) | also measured |
| --- | --- | --- | --- | --- | --- | --- | --- | --- | --- | --- | --- | --- | --- | --- | --- | --- |
| Cc1cccc(Nc2cc(Cl)nc(SCC(=O)O)n2)c1C [WY14643] | dose-dependently increased and exceeded the threshold | 41 µM | 2.5^3,5 µM | MMP hyperpolarization | induced apoptosis | 38.1 µM | 386 µM |  |  |  |  |  |  |  |  | Lipid accumulation response (in words) ([1]; listed as WY-14693): having the potential to induce lipid accumulation; OED [2]: 1.7 mg/kg/day |
| O=c1[nH]c(=O)n([C@@H]2O[C@H](CO)[C@@H](O)[C@@H]2F)cc1I [fialuridine] | neither induced lipid accumulation; also recorded: did not give rise to lipid accumulation |  |  | increased MMP |  | 6.3 µM | 45.1 µM | 0.173 µL/min/1e6 cells | 0.6^3 µM | neither induced lipid accumulation, had any consistent impact on oxidative stress | 5.6 mg/kg/day | -0.9 | 0.375 |  |  | Concentration at which increase of MMP (hyperpolarization) was observed / exceeded the threshold ([4]; HepaRG 24 h): 25 µM; In vivo clearance (L/h): Nonrenal clearance [11, 17]: 2.06 L/h; In vivo clearance (L/h): Renal clearance [11, 17]: 4.21 L/h; In vivo clearance (L/h): Total clearance [11, 17]: 6.27 L/h |
| O=C(NC1CCN(CCCCC2(C(=O)NCC(F)(F)F)c3ccccc3-c3ccccc32)CC1)c1ccccc1-c1ccc(C(F)(F)F)cc1 [lomitapide] | not and did not give rise to lipid accumulation |  |  |  | increased above the threshold | 0.58 µM | 4 µM | 48.3 µL/min/1e6 cells | 0.0002^3 µM | no changes were observed | 1333 mg/kg/day | 8.2 | 0.002 | 13.5 µM | 12 µM | In vivo clearance (L/h) ([11]; after 50 mg p.o., ref Aegerion Pharmaceuticals 2012): 573.4656 (after 50 mg p.o.) L/h |
| CN(C)C(=N)N=C(N)N [metformin] | accumulated in a dose-dependent manner above the threshold; also recorded: having the potential to induce lipid accumulation | 987 µM |  |  | increased above the threshold |  | 1940 µM | 4.01 µL/min/1e6 cells |  |  | 6778 mg/kg/day |  | 0.99 |  | 50,000 µM | Concentration at which lipid accumulation was induced ([1]; increase): 25,000 µM and 50,000 µM; Concentration at which decrease of oxidative stress fell below the threshold ([9]; HepaRG 24 h): 50,000 µM; In vivo Css ([11]; published, ref Birkett and Miners 1991, Graham et al. 2011, Freedman and Somberg 1991, Vasudev et al. 2001): 5.2 µM |
| CN(C)[C@@H]1C(O)=C(C(N)=O)C(=O)[C@@]2(O)C(O)=C3C(=O)c4c(O)cccc4[C@@](C)(O)[C@H]3C[C@@H]12 [tetracycline] | accumulated in a dose-dependent manner above the threshold | 32.9 µM |  |  | increased above the threshold | 218 µM | 32.7 µM |  | 9.7^3 µM |  | 30.2 mg/kg/day |  |  | 238 µM | 250 µM | Mitochondrial membrane potential in hepatocyte-like and cholangiocyte-like cells (in words) [4, 18]: decrease of mitochondrial membrane potential was observed in both cell types; Concentration at which increase of oxidative stress exceeded the threshold ([9]; HepaRG 24 h): 125 µM and 250 µM; OS: Benchmark concentration (µM) per imaging endpoint calculated with BMDS software ([9]; oxidative stress, HepaRG 24 h, Supplementary table 3): 69.7 µM; Oxidative stress in hepatocyte-like and cholangiocyte-like cells (in words) [9, 18]: oxidative stress levels were elevated in both cell types |
| O=c1cc(-c2ccccc2)oc2ccc3ccccc3c12 [β-naphthoflavone] | did not give rise to lipid accumulation |  | 2.3^3 µM | none of the hallmarks were induced | none of the hallmarks were induced |  |  |  |  | none of the hallmarks were induced |  | 4.4 |  |  |  | Lipid accumulation response (in words) ([1]; listed as BNF): not; hepatocyte CLint ([3]; hepatocytes (back-calculated, no incubation), in vitro intrinsic hepatic clearance calculated from in vivo clearance with formula 3, read-out: Calculated Clint (ul/min/10^6 cells)): 23.4 µL/min/1e6 cells; In vivo clearance (L/h) [15]: 1.3 (plasma clearance) L/h; Fup [16]: 0.04 |
